BindingDB's records for doi:10.1016/s0960-894x(01)00019-1 (Glaxowellcome Medicines Research Centre, 2001)

Experiment: Inhibitory activity against influenza A sialidase (Aichi)

Question: Which IC50 does the source give for `CCCN(CCc1ccccc1)C(=O)[C@@H]1OC(C(=O)O)=CC[C@H]1NC(C)=O` [(5R,6R)-5-Acetylamino-6-(phenethyl-propyl-carbamoyl)-5,6-dihydro-4H-pyran-2-carboxylic acid] here?
Answer: 7 nM

Question: With `CCCN(CCC)C(=O)[C@@H]1OC(C(=O)O)=C[C@H](N)[C@H]1NC(=O)C(C)C` [(4S,5R,6R)-4-Amino-6-dipropylcarbamoyl-5-isobutyrylamino-5,6-dihydro-4H-pyran-2-carboxylic acid] as the compound, how does the IC50 read?
Answer: 17000 nM

Question: Which IC50 does the source give for `CCCN(CCC)C(=O)[C@@H]1OC(C(=O)O)=C[C@H](NCC)[C@H]1NC(C)=O` [(4S,5R,6R)-5-Acetylamino-6-dipropylcarbamoyl-4-ethylamino-5,6-dihydro-4H-pyran-2-carboxylic acid] here?
Answer: 420 nM

Question: With `CCCN(CCC)C(=O)[C@@H]1OC(C(=O)O)=C[C@H](N)[C@H]1NC(=O)CC` [(4S,5R,6R)-4-Amino-6-dipropylcarbamoyl-5-propionylamino-5,6-dihydro-4H-pyran-2-carboxylic acid] as the compound, how does the IC50 read?
Answer: 5 nM

Question: With `CCCN(CCC)C(=O)[C@@H]1OC(C(=O)O)=C[C@H](N)[C@H]1NS(C)(=O)=O` [(4S,5R,6R)-4-Amino-6-dipropylcarbamoyl-5-methanesulfonylamino-5,6-dihydro-4H-pyran-2-carboxylic acid] as the compound, how does the IC50 read?
Answer: 3000 nM

Question: Which IC50 does the source give for `CCCN(CCc1ccccc1)C(=O)[C@@H]1OC(C(=O)O)=C[C@H](N)[C@H]1NC(=O)C1CC1` [(4S,5R,6R)-4-Amino-5-(cyclopropanecarbonyl-amino)-6-(phenethyl-propyl-carbamoyl)-5,6-dihydro-4H-pyran-2-carboxylic acid] here?
Answer: 50 nM

Question: Which IC50 does the source give for `CCCC(=O)N[C@@H]1[C@@H](N)C=C(C(=O)O)O[C@H]1C(=O)N(CCC)CCc1ccccc1` [(4S,5R,6R)-4-Amino-5-butyrylamino-6-(phenethyl-propyl-carbamoyl)-5,6-dihydro-4H-pyran-2-carboxylic acid] here?
Answer: 43000 nM

Question: Which IC50 does the source give for `CCCN(CCC)C(=O)[C@@H]1OC(C(=O)O)=C[C@@H](N)[C@H]1NC(C)=O` [(4R,5R,6R)-5-Acetylamino-4-amino-6-dipropylcarbamoyl-5,6-dihydro-4H-pyran-2-carboxylic acid] here?
Answer: 140 nM

Question: With `CCCN(CCc1ccccc1)C(=O)[C@@H]1OC(C(=O)O)=C[C@H](N)[C@H]1NC(=O)CC` [(4S,5R,6R)-4-Amino-6-(phenethyl-propyl-carbamoyl)-5-propionylamino-5,6-dihydro-4H-pyran-2-carboxylic acid] as the compound, how does the IC50 read?
Answer: 0.7 nM

Question: Which IC50 does the source give for `CCCN(CCc1ccccc1)C(=O)[C@@H]1OC(C(=O)O)=C[C@H](O)[C@H]1NC(C)=O` [(4S,5R,6R)-5-Acetylamino-4-hydroxy-6-(phenethyl-propyl-carbamoyl)-5,6-dihydro-4H-pyran-2-carboxylic acid] here?
Answer: 7 nM

Question: Which IC50 does the source give for `CCCN(CCc1ccccc1)C(=O)[C@@H]1OC(C(=O)O)=C[C@H](N)[C@H]1NC(=O)C(F)(F)F` [(4S,5R,6R)-4-Amino-6-(phenethyl-propyl-carbamoyl)-5-(2,2,2-trifluoro-acetylamino)-5,6-dihydro-4H-pyran-2-carboxylic acid] here?
Answer: 3 nM

Question: With `CCCN(CCC)C(=O)[C@@H]1OC(C(=O)O)=C[C@H](NC)[C@H]1NC(C)=O` [(4S,5R,6R)-5-Acetylamino-6-dipropylcarbamoyl-4-methylamino-5,6-dihydro-4H-pyran-2-carboxylic acid] as the compound, how does the IC50 read?
Answer: 240 nM

Question: For `CCCN(CCC)C(=O)[C@@H]1OC(C(=O)O)=C[C@H](N)[C@H]1NC(=O)C(F)(F)F` [(4S,5R,6R)-4-Amino-6-dipropylcarbamoyl-5-(2,2,2-trifluoro-acetylamino)-5,6-dihydro-4H-pyran-2-carboxylic acid], which IC50 is on record?
Answer: 0.3 nM

Question: Which IC50 does the source give for `CCCN(CCc1ccccc1)C(=O)[C@@H]1OC(C(=O)O)=C[C@@H](O)[C@H]1NC(C)=O` [(4R,5R,6R)-5-Acetylamino-4-hydroxy-6-(phenethyl-propyl-carbamoyl)-5,6-dihydro-4H-pyran-2-carboxylic acid] here?
Answer: 17 nM
